Results: patent US20120165306A1, “PYRAZINYLPYRIDINES USEFUL FOR THE TREATMENT OF PROLIFERATIVE DISEASES” (priority 2009, published 2012)

Target: Cdk9/cyclinT1 (Homo sapiens, UniProt P50750)
Test: Cdk9/cyclinT1 kinase assay (IMAP or Alpha Screen protocol)
From the text: Cdk9/cyclinT1 IMAP Protocol
Fluorescence polarization (FP) is used for detection.
Cdk9/cyclinT1 Alpha Screen Protocol

Cdk9/cyclinT1, sequence (P50750 whole entry): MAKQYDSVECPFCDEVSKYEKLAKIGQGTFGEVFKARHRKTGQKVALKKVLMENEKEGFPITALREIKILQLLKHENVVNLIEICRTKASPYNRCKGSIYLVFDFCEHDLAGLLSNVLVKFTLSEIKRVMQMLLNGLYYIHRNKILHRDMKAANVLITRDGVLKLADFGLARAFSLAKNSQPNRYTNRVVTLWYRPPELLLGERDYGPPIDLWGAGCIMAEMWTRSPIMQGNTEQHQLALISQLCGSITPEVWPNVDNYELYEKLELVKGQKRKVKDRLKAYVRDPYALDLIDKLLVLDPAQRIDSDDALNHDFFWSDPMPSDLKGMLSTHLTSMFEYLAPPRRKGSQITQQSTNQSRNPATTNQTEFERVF
Cdk9/cyclinT1, sequence (O60563 whole entry partner): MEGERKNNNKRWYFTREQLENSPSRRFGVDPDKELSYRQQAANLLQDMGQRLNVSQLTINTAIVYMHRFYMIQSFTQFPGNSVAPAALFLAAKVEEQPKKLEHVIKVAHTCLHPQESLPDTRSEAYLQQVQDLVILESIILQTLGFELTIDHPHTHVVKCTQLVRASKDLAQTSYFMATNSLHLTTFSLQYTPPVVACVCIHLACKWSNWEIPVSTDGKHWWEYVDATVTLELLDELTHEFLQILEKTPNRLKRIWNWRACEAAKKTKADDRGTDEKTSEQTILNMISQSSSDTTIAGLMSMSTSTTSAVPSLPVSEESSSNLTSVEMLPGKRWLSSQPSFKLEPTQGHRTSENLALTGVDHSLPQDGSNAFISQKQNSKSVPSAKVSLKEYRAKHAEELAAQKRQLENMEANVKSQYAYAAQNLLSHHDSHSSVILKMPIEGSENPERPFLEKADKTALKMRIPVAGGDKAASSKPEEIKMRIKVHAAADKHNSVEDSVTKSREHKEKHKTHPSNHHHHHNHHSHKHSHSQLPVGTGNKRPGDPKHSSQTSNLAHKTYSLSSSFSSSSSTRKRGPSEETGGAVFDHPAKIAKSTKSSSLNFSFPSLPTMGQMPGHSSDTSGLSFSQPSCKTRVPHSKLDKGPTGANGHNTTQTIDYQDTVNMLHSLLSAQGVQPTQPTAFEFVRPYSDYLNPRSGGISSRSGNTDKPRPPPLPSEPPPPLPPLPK

Compound | IC50
C[C@@H](O)CNc1cncc(-c2cc(NC(=O)[C@@H]3CCCNC3)ncc2Cl)n1 [Example 28, (R)-Piperidine-3-carboxylic acid {5-chloro-4-[6-((R)-2-hydroxy-propylamino)-pyrazin-2-yl]-pyridin-2-yl}-amide] | 15 nM
CS(=O)(=O)N[C@@H]1CC[C@@H](C(=O)Nc2cc(-c3cncc(NCC4CCOCC4)n3)c(Cl)cn2)C1 [Example 52, (1R,3R)-3-Methanesulfonylamino-cyclopentanecarboxylic acid (5-chloro-4-{6-[(tetrahydro-pyran-4-ylmethyl)-amino]-pyrazin-2-yl}-pyridin-2-yl)-amide] | < 8 nM
CC(C)(C)OC(=O)N1CCC[C@@H](C(=O)Nc2cc(-c3cncc(NCC4CCOCC4)n3)c(Cl)cn2)C1 [Example 2, (R)-3-(5-Chloro-4-{6-[(tetrahydro-pyran-4-ylmethyl)-amino]-pyrazin-2-yl}-pyridin-2-ylcarbamoyl)-piperidine-1-carboxylic acid tert-butyl ester] | 16 nM
O=C(Nc1cc(-c2cncc(NCC3CCOCC3)n2)c(Cl)cn1)[C@H]1CNC[C@H]1F [Example 64, (3R,4S)-4-Fluoro-pyrrolidine-3-carboxylic acid (5-chloro-4-{6-[(tetrahydro-pyran-4-ylmethyl)-amino]-pyrazin-2-yl}-pyridin-2-yl)-amide] | < 8 nM
CC(=O)N1CCC[C@@H](C(=O)Nc2cc(-c3cncc(NCC4CCOCC4)n3)c(Cl)cn2)C1 [Example 5, (R)-1-Acetyl-piperidine-3-carboxylic acid (5-chloro-4-{6-[(tetrahydro-pyran-4-ylmethyl)-amino]-pyrazin-2-yl}-pyridin-2-yl)-amide] | 268 nM
O=C(Nc1cc(-c2cncc(NC[C@@H]3CCCO3)n2)c(Cl)cn1)[C@@H]1CCCNC1 [Example 33, (R)-Piperidine-3-carboxylic acid [5-chloro-4-(6-{[(S)-1-(tetrahydro-furan-2-yl)methyl]-amino}-pyrazin-2-yl)-pyridin-2-yl]-amide] | 15 nM
O=C(Nc1cc(-c2cncc(NCC3CCOCC3)n2)c(Cl)cn1)C1CCNCC1 [Example 22, Piperidine-4-carboxylic acid (5-chloro-4-{6-[(tetrahydro-pyran-4-ylmethyl)-amino]-pyrazin-2-yl}-pyridin-2-yl)-amide] | 8 nM
CC(C)C(=O)Nc1cc(-c2cncc(NCC3CCOCC3)n2)c(Cl)cn1 [Example 12, N-(5-Chloro-4-{6-[(tetrahydro-pyran-4-ylmethyl)-amino]-pyrazin-2-yl}-pyridin-2-yl)-isobutyramide] | < 8 nM
CS(=O)(=O)N1CCC[C@H](C(=O)Nc2cc(-c3cncc(NCC4CCOCC4)n3)c(C(F)(F)F)cn2)C1 [Example 65, (S)-1-Methanesulfonyl-piperidine-3-carboxylic acid (4-{6-[(tetrahydro-pyran-4-ylmethyl)-amino]-pyrazin-2-yl}-5-trifluoromethyl-pyridin-2-yl)-amide] | 103 nM
COC(=O)N[C@@H]1CC[C@@H](C(=O)Nc2cc(-c3cncc(NCC4CCOCC4)n3)c(Cl)cn2)C1 [Example 55, [(1R,3R)-3-(5-Chloro-4-{6-[(tetrahydro-pyran-4-ylmethyl)-amino]-pyrazin-2-yl}-pyridin-2-ylcarbamoyl)-cyclopentyl]-carbamic acid methyl ester] | < 8 nM
CC(=O)N1CCC[C@H](C(=O)Nc2cc(-c3cncc(NCC4CCOCC4)n3)c(Cl)cn2)C1 [Example 48, (S)-1-Acetyl-piperidine-3-carboxylic acid (5-chloro-4-{6-[(tetrahydro-pyran-4-ylmethyl)-amino]-pyrazin-2-yl}-pyridin-2-yl)-amide] | < 8 nM
C[C@@H](Nc1cncc(-c2cc(NC(=O)[C@@H]3CCCNC3)ncc2Cl)n1)C1CCCCC1 [Example 37, (R)-Piperidine-3-carboxylic acid {5-chloro-4-[6-((R)-1-cyclohexyl-ethylamino)-pyrazin-2-yl]-pyridin-2-yl}-amide] | < 8 nM
O=C(Nc1cc(-c2cncc(NCCN3CCCC3=O)n2)c(Cl)cn1)[C@@H]1CCCNC1 [Example 32, (R)-Piperidine-3-carboxylic acid (5-chloro-4-{6-[2-(2-oxo-pyrrolidin-1-yl)-ethylamino]-pyrazin-2-yl}-pyridin-2-yl)-amide] | 20 nM
N[C@@H]1CC[C@H](C(=O)Nc2cc(-c3cncc(NCC4CCOCC4)n3)c(Cl)cn2)C1 [Example 42, (1S,3R)-3-Amino-cyclopentanecarboxylic acid (5-chloro-4-{6-[(tetrahydro-pyran-4-ylmethyl)-amino]-pyrazin-2-yl}-pyridin-2-yl)-amide] | 25 nM
O=C(Nc1cc(-c2cncc(NCC3CCOCC3)n2)c(Cl)cn1)[C@@H]1CCCNC1 [Example 9, (R)-Piperidine-3-carboxylic acid (5-chloro-4-{6-[(tetrahydro-pyran-4-ylmethyl)-amino]-pyrazin-2-yl}-pyridin-2-yl)-amide] | < 8 nM
C[C@H](Nc1cncc(-c2cc(NC(=O)[C@@H]3CCCNC3)ncc2Cl)n1)C1CCCCC1 [Example 36, (R)-Piperidine-3-carboxylic acid {5-chloro-4-[6-((S)-1-cyclohexyl-ethylamino)-pyrazin-2-yl]-pyridin-2-yl}-amide] | < 8 nM
COCCNc1cncc(-c2cc(NC(=O)[C@@H]3CCCNC3)ncc2Cl)n1 [Example 35, (R)-Piperidine-3-carboxylic acid {5-chloro-4-[6-(2-methoxy-ethylamino)-pyrazin-2-yl]-pyridin-2-yl}-amide] | 47 nM
O=C(Nc1cc(-c2cncc(NCC3CCOCC3)n2)c(Cl)cn1)[C@@H]1CCCN1 [Example 40, (S)-Pyrrolidine-2-carboxylic acid (5-chloro-4-{6-[(tetrahydro-pyran-4-ylmethyl)-amino]-pyrazin-2-yl}-pyridin-2-yl)-amide] | 37 nM
COC(=O)N[C@H]1CC[C@@H](C(=O)Nc2cc(-c3cncc(NCC4CCOCC4)n3)c(Cl)cn2)C1 [Example 54, [(1S,3R)-3-(5-Chloro-4-{6-[(tetrahydro-pyran-4-ylmethyl)-amino]-pyrazin-2-yl}-pyridin-2-ylcarbamoyl)-cyclopentyl]-carbamic acid methyl ester] | < 8 nM
O=C(Nc1cc(-c2cncc(NCC3CCOCC3)n2)c(Cl)cn1)C1CCOCC1 [Example 15, Tetrahydro-pyran-4-carboxylic acid (5-chloro-4-{6-[(tetrahydro-pyran-4-ylmethyl)-amino]-pyrazin-2-yl}-pyridin-2-yl)-amide] | < 8 nM
CCS(=O)(=O)N1CCC[C@H](C(=O)Nc2cc(-c3cncc(NCC4CCOCC4)n3)c(Cl)cn2)C1 [Example 45, (S)-1-Ethanesulfonyl-piperidine-3-carboxylic acid (5-chloro-4-{6-[(tetrahydro-pyran-4-ylmethyl)-amino]-pyrazin-2-yl}-pyridin-2-yl)-amide] | < 8 nM
N[C@H]1CC[C@@H](C(=O)Nc2cc(-c3cncc(NCC4CCOCC4)n3)c(Cl)cn2)C1 [Example 43, (1R,3S)-3-Amino-cyclopentanecarboxylic acid (5-chloro-4-{6-[(tetrahydro-pyran-4-ylmethyl)-amino]-pyrazin-2-yl}-pyridin-2-yl)-amide] | < 8 nM
